Measurements as given in US20230348444A1, “NOVEL COMPOUNDS FOR USE IN THE TREATMENT OF DISEASES ASSOCIATED WITH ANGIOTENSIN II” (Vicore Pharma AB, priority 2020, published 2023).
Read-outs that look alike come from different tables or passages of the source. One block for each compound: values may come before it.

Tests used:
Type in all cases: in vitro ADME
[1] = test system: CYP3A4&5; assay: CYP inhibition in human liver microsomes (Eurofins protocol ITEMG232), testosterone substrate; details: probe testosterone, read-out: CYP3A4&5 testosterone Inh %
Procedure: (§1) The following substrates were used; CYP1A phenacetin, CYP2B6 bupropion, CYP2C8 paclitaxel and amodiaquine, CYP2C9 diclofenac, CYP2C19 omeprazole, CYP2D6 dextromethorphan, CYP3A midazolam and testosterone.
(§2) At the end of the incubation, the formation of metabolite was monitored by HPLC-MS/MS as the peak area response.

[2] = biological target: T1, CYP2B6 (Homo sapiens, UniProt P20813); assay: CYP inhibition in human liver microsomes (Eurofins protocol ITEMG232); details: probe bupropion, substrate bupropion, read-out: CYP2B6 Inh %
T1 construct: using isoform-specific substrates incubated with human liver microsomes; tissue Eurofins ITEMG232; host or cells: human liver microsomes
T1 sequence (P20813 1-491): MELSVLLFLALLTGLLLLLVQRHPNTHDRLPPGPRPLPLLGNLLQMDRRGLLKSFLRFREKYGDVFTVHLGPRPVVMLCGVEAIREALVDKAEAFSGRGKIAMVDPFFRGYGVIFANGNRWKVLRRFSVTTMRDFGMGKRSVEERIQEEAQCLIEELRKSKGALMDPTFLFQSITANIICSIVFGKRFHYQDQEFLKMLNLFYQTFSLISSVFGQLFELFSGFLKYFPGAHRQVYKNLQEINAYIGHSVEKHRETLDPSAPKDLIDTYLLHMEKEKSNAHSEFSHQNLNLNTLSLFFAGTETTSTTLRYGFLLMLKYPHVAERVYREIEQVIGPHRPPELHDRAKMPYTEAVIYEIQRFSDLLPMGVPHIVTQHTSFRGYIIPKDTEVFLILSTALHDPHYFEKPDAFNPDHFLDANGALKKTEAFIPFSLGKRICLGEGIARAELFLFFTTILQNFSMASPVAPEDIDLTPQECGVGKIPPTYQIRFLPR
Procedure: as §1, §2

[3] = biological target: T2, CYP2C8 (Homo sapiens, UniProt P10632); assay: as above; details: probe paclitaxel and amodiaquine, substrates paclitaxel and amodiaquine, read-out: CYP2C8 Inh %
T2 construct: using isoform-specific substrates incubated with human liver microsomes; tissue Eurofins ITEMG232; host or cells: human liver microsomes
T2 sequence (P10632 1-490): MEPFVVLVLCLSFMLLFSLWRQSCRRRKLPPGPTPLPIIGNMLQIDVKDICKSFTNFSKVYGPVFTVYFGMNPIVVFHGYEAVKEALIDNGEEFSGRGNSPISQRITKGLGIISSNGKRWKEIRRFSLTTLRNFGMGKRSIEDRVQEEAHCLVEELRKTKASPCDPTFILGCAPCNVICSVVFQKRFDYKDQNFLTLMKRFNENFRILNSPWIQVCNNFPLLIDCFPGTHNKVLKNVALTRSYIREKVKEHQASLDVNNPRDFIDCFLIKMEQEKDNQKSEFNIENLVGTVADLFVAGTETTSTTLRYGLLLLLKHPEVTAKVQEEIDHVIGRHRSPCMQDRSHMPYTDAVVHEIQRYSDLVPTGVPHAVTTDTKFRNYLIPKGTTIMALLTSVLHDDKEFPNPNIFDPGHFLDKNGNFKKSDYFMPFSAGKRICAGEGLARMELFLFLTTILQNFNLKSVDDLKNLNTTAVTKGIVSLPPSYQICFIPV
Procedure: as §1, §2

[4] = biological target: T3, CYP2C19 (Homo sapiens, UniProt P33261); assay: as above; details: probe omeprazole, substrate omeprazole, read-out: CYP2C19 Inh %
T3 construct: using isoform-specific substrates incubated with human liver microsomes; tissue Eurofins ITEMG232; host or cells: human liver microsomes
Procedure: as §1, §2

[5] = biological target: T4, CYP2D6 (Homo sapiens, UniProt P10635); assay: as above; details: probe dextromethorphan, substrate dextromethorphan, read-out: CYP2D6 Inh %
T4 construct: tissue Eurofins ITEMG232; host or cells: human liver microsomes
Procedure: as §1, §2

[6] = biological target: T5, CYP1A (Homo sapiens, UniProt P05177); assay: as above; details: probe phenacetin, substrate phenacetin, read-out: CYP1A Inh %
T5 construct: using isoform-specific substrates incubated with human liver microsomes; tissue Eurofins ITEMG232; host or cells: human liver microsomes
T5 sequence (P05177 2-516 limits assumed): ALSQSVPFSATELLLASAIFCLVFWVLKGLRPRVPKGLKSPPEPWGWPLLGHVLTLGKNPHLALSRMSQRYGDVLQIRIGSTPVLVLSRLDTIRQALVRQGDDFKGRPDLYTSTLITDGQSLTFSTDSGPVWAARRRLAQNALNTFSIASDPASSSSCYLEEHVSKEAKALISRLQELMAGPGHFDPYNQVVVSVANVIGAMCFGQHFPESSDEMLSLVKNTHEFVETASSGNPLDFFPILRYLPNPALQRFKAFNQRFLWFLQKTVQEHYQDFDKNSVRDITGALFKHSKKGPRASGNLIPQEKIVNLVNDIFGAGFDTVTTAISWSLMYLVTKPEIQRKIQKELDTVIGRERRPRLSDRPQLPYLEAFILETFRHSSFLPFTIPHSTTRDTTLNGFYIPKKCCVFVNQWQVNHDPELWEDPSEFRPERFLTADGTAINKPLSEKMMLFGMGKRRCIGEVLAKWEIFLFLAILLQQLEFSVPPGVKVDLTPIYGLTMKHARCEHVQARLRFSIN
Procedure: as §1, §2

[7] = biological target: CYP2C9 (Homo sapiens, UniProt P11712); assay: as above; parameters: using isoform-specific substrates incubated with human liver microsomes; tissue Eurofins ITEMG232; host or cells: human liver microsomes; details: probe diclofenac, substrate diclofenac, read-out: CYP2C9 Inh %
Procedure: as §1, §2

[8] = biological target: CYP3A4 (Homo sapiens, UniProt P08684); assay: CYP inhibition in human liver microsomes (Eurofins protocol ITEMG232), midazolam substrate; parameters: using isoform-specific substrates incubated with human liver microsomes; tissue Eurofins ITEMG232; host or cells: human liver microsomes; details: probe midazolam, read-out: CYP3A4 midazolam Inh %
Procedure: as §1, §2

[9] = Metabolic stability in pooled human liver microsomes with or without NADPH; details: human, pooled human liver microsomes, pooled human liver microsomes 0.5 mg/mL in PBS, 1 uM test compound, 37° C.
Procedure: Pooled human liver microsomes in PBS at a concentration of 0.5 mg/mL was incubated with or without 1 mM NADPH for 70 min at 37° C. Test compound was added after 10 minutes to a final concentration of 1 uM. Samples were withdrawn at 0, 5, 15 and 60 minutes and added to test tubes containing acetonitrile, to stop the reaction, and with terfenadine, used as internal standard. After centrifugation at 10000×g for 5 minutes the supernatant was diluted 1:1 with 1% formic acid. Samples were separated on a reverse phase column and detected by triple quadrupole MSMS (Agilant model 6540). The concentration of the parent compound at the different time points was measured with an external standard curve using terfenadine as internal standard and the initial metabolic rate in the presence or absence of NADPH calculated.

[10] = with 1 mM NADPH, read-out: T1/2, +NaDPH
[11] = without NADPH, read-out: T1/2, no NaDPH

T3 sequence (P33261 whole entry, canonical isoform): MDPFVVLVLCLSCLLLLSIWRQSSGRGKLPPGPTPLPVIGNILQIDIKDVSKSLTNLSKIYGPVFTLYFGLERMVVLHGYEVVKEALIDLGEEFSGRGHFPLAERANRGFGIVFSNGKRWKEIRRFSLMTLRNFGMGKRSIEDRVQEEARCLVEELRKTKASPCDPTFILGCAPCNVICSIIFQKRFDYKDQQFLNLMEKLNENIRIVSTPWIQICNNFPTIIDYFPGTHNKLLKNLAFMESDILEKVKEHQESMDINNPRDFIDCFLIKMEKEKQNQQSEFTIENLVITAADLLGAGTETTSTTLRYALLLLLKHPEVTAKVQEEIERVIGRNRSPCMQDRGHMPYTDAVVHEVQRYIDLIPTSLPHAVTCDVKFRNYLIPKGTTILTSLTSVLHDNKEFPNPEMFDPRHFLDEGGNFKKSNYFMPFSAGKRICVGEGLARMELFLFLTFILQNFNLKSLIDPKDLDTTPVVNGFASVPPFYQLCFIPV
Chain of CYP2C9 (P11712 whole entry, canonical isoform): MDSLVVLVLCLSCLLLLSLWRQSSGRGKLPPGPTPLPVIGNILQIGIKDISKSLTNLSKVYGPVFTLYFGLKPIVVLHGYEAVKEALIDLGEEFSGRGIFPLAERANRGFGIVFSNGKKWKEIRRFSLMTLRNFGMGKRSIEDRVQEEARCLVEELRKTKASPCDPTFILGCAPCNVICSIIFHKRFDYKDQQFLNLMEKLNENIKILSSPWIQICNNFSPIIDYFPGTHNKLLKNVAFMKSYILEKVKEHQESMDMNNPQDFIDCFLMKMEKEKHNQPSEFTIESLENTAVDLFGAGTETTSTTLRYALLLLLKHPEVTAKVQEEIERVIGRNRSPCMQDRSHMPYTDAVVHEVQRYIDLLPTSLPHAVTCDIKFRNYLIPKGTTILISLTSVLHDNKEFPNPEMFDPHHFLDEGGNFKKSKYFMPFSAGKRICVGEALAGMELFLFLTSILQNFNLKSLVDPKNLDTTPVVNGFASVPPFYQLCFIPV
T4 sequence (P10635 whole entry): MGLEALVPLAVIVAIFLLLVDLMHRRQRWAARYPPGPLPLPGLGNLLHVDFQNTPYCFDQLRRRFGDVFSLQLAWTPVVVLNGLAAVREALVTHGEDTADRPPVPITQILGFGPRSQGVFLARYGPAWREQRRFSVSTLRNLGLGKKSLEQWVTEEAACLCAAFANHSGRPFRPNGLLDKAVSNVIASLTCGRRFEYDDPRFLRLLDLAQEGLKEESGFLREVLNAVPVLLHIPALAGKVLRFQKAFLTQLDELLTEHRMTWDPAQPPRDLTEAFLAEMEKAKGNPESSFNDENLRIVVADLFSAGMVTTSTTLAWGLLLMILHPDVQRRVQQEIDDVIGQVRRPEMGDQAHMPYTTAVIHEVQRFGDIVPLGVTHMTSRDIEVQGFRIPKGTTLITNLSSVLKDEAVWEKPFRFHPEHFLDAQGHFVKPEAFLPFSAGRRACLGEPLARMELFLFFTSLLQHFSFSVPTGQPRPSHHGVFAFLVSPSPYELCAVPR
Chain of CYP3A4 (P08684 whole entry, canonical isoform): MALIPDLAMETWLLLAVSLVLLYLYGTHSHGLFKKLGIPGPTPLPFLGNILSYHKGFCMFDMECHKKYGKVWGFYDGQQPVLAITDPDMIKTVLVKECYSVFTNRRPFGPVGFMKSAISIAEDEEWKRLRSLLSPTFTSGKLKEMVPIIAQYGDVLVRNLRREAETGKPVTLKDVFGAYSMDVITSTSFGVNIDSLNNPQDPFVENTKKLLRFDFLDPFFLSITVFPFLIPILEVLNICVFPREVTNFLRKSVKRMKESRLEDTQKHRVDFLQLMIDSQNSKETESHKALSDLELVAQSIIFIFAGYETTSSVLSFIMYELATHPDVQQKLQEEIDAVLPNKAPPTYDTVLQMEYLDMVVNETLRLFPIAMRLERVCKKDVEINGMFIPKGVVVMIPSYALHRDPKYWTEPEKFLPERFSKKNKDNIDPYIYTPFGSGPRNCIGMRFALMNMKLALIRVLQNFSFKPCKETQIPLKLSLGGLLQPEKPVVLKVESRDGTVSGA

Compound: CCCCOC(=O)NS(=O)(=O)c1sc(CC(C)C)cc1-c1ccc(Cn2ccnc2C)c(F)c1 [Example 2, Butyl (3-(3-fluoro-4-((2-methyl-1H-imidazol-1-yl)methyl)phenyl)-5-isobutylthiophen-2-yl)sulfonylcarbamate trifluoroacetic acid]
inhibition at 10 µM [1]: 21%
inhibition at 10 µM [2]: 41%
inhibition at 10 µM [3]: 80%
inhibition at 10 µM [4]: 55%
inhibition at 10 µM [5]: 22%
inhibition at 10 µM [6]: 19%
inhibition at 10 µM [7]: 70%
inhibition at 10 µM [8]: -15%

Compound: Cc1nccn1Cc1ccc(-c2cc(CC(C)C)sc2S(=O)(=O)NC(=O)OCCO)cc1F.O=C(O)C(F)(F)F [Example 4, 2-Hydroxyethyl (3-(3-fluoro-4-((2-methyl-1H-imidazol-1-yl)methyl)phenyl)-5-isobutyl-thiophen-2-yl)sulfonylcarbamate trifluoroacetic acid]
half-life at 1 uM [9, 10]: > 60 min
half-life at 1 uM [9, 11]: > 60 min
inhibition at 10 µM [1]: 22%
inhibition at 10 µM [2]: 55%
inhibition at 10 µM [3]: 54%
inhibition at 10 µM [4]: 31%
inhibition at 10 µM [5]: 54%
inhibition at 10 µM [6]: 27%
inhibition at 10 µM [7]: 58%
inhibition at 10 µM [8]: -66%

Compound: CCc1nccn1Cc1ccc(-c2cc(CC(C)C)sc2S(=O)(=O)NC(=O)OCCC(F)(F)F)cc1F.O=C(O)C(F)(F)F [Example 5, 3,3,3-Trifluoropropyl (3-(4-((2-ethyl-1H-imidazol-1-yl)methyl)-3-fluorophenyl)-5-iso-butyl-thiophen-2-yl)sulfonylcarbamate trifluoroacetic acid]
half-life at 1 uM [9, 10]: 18 min
half-life at 1 uM [9, 11]: 55 min
inhibition at 10 µM [1]: 5%
inhibition at 10 µM [2]: 37%
inhibition at 10 µM [3]: 64%
inhibition at 10 µM [4]: 63%
inhibition at 10 µM [5]: 49%
inhibition at 10 µM [6]: 35%
inhibition at 10 µM [7]: 71%
inhibition at 10 µM [8]: -24%

Compound: CC(C)Cc1cc(-c2ccc(Cn3ccnc3C(C)(C)C)c(F)c2)c(S(=O)(=O)NC(=O)OCCO)s1 [Example 17, 2-Hydroxyethyl (3-(4-((2-(tert-butyl)-1H-imidazol-1-yl)methyl)-3-fluorophenyl)-5-isobutylthiophen-2-yl)sulfonylcarbamate]
inhibition at 10 µM [1]: 3.7%
inhibition at 10 µM [2]: 33.8%
inhibition at 10 µM [3]: 78.6%
inhibition at 10 µM [4]: 53.1%
inhibition at 10 µM [5]: 73.4%
inhibition at 10 µM [6]: 29.9%
inhibition at 10 µM [7]: 36.8%
inhibition at 10 µM [8]: -20.6%

Compound: COC(=O)NS(=O)(=O)c1sc(CC(C)C)cc1-c1ccc(Cn2ccnc2C(C)(C)C)c(F)c1 [Example 20, Methyl (3-(4-((2-(tert-butyl)-1H-imidazol-1-yl)methyl)-3-fluorophenyl)-5-isobutylthiophen-2-yl)sulfonylcarbamate]
inhibition at 10 µM [1]: -4.8%
inhibition at 10 µM [2]: 32.6%
inhibition at 10 µM [3]: 90.5%
inhibition at 10 µM [4]: 45.6%
inhibition at 10 µM [5]: 22.3%
inhibition at 10 µM [6]: 46%
inhibition at 10 µM [7]: 57.9%
inhibition at 10 µM [8]: -56.9%

Results, then the compound that gave them:

half-life at 1 uM [9, 10]: > 60 min
half-life at 1 uM [9, 11]: > 60 min
inhibition at 10 µM [1]: 8%
inhibition at 10 µM [2]: 16.6%
inhibition at 10 µM [3]: 44.2%
inhibition at 10 µM [4]: 13.8%
inhibition at 10 µM [5]: 16.3%
inhibition at 10 µM [6]: 58.7%
inhibition at 10 µM [7]: 51.4%
inhibition at 10 µM [8]: -48%
Compound: COC(=O)NS(=O)(=O)c1sc(CC(C)C)cc1-c1ccc(Cn2ccnc2C)c(F)c1 [Example 21, Methyl (3-(3-fluoro-4-((2-methyl-1H-imidazol-1-yl)methyl)phenyl)-5-isobutyl-thio-phen-2-yl)sulfonylcarbamate]

half-life at 1 uM [9, 10]: 29 min
half-life at 1 uM [9, 11]: 44 min
inhibition at 10 µM [1]: 23.8%
inhibition at 10 µM [2]: 1.6%
inhibition at 10 µM [3]: 53.9%
inhibition at 10 µM [4]: 45.9%
inhibition at 10 µM [5]: 18.9%
inhibition at 10 µM [6]: -15.3%
inhibition at 10 µM [7]: 23.3%
inhibition at 10 µM [8]: 51.7%
Compound: Cc1nccn1Cc1ccc(-c2cc(CC(C)C)sc2S(=O)(=O)NC(=O)C(C)(C)C)cc1F [Example 22, N-((3-(3-Fluoro-4-((2-methyl-1H-imidazol-1-yl)methyl)phenyl)-5-isobutylthiophen-2-yl)sulfonyl)pivalamide]

inhibition at 10 µM [1]: 12.5%
inhibition at 10 µM [2]: 16.8%
inhibition at 10 µM [3]: 74.7%
inhibition at 10 µM [4]: 51.2%
inhibition at 10 µM [5]: 5.8%
inhibition at 10 µM [6]: 16.7%
inhibition at 10 µM [7]: 47%
inhibition at 10 µM [8]: -14.1%
Compound: CC(C)Cc1cc(-c2ccc(Cn3ccnc3C(C)(C)C)c(F)c2)c(S(=O)(=O)NC(=O)OCC(C)(C)O)s1 [Example 23, 2-Hydroxy-2-methylpropyl (3-(4-((2-(tert-butyl)-1H-imidazol-1-yl)methyl)-3-fluoro-Phenyl)-5-isobutylthiophen-2-yl)sulfonylcarbamate]

half-life at 1 uM [9, 10]: > 60 min
half-life at 1 uM [9, 11]: > 60 min
Compound: CCc1nccn1Cc1ccc(-c2cc(CC(C)C)sc2S(=O)(=O)NC(=O)OCCO)cc1F [Example 24, 2-Hydroxyethyl (3-(4-((2-ethyl-1H-imidazol-1-yl)methyl)-3-fluorophenyl)-5-isobutyl-thiophen-2-yl)sulfonylcarbamate]

half-life at 1 uM [9, 10]: > 60 min
half-life at 1 uM [9, 11]: > 60 min
inhibition at 10 µM [1]: 26.6%
inhibition at 10 µM [2]: 20%
inhibition at 10 µM [3]: 21.9%
inhibition at 10 µM [4]: 0.5%
inhibition at 10 µM [5]: 17.1%
inhibition at 10 µM [6]: 23.5%
inhibition at 10 µM [7]: 50.4%
inhibition at 10 µM [8]: -28.7%
Compound: CCc1nccn1Cc1ccc(-c2cc(CC(C)C)sc2S(=O)(=O)NC(=O)OC)cc1F [Example 25, Methyl (3-(4-((2-ethyl-1H-imidazol-1-yl)methyl)-3-fluorophenyl)-5-isobutylthiophen-2-yl)sulfonylcarbamate]
